Results reported in ChEMBL document CHEMBL1159143, “Benzofuran based non-peptide antagonists of angiotensin II related to GR117289: part IV; imidazopyridinylbenzofurans” (Bioorg Med Chem Lett, 1994).

Key:
[1] = test system: Type-1 angiotensin II receptor (Oryctolagus cuniculus); assay: In vitro inhibitory activity against Angiotensin II receptor in rabbit aorta was evaluated
[2] = Compound was tested for plasma half-life period in rat; assay type: ADME, organism-based
[3] = Volume distribution in rat; assay type: ADME, organism-based; conditions: in vivo
[4] = Compound was tested for plasma clearance in rats; assay type: ADME, organism-based; conditions: rat, read-out: Clp
[5] = Oral bioavailability in rat; assay type: ADME, organism-based; conditions: in vivo

CCc1nc2c(C)cc(C(=O)O)nc2n1Cc1ccc2oc(-c3ccccc3NS(=O)(=O)C(F)(F)F)c(Br)c2c1
pKB [1]: 9.3

CCc1nc2c(C)cc(C)nc2n1Cc1ccc2oc(-c3ccccc3NS(=O)(=O)C(F)(F)F)c(Br)c2c1
half-life [2]: 2.8 h
Vd [3]: 1.33 L/kg
pKB [1]: 9.3
clearance [4]: 5.49 mL/min/kg
bioavailability [5]: 70%

CCc1nc2c(C)cc(CO)nc2n1Cc1ccc2oc(-c3ccccc3NS(=O)(=O)C(F)(F)F)c(Br)c2c1
half-life [2]: 5.7 h
Vd [3]: 2.4 L/kg
pKB [1]: 8.6
clearance [4]: 4.8 mL/min/kg
bioavailability [5]: 115%

CCc1nc2c(C)ccnc2n1Cc1ccc2oc(-c3ccccc3NS(=O)(=O)C(F)(F)F)c(Br)c2c1
pKB [1]: 8.3
